Each structure is given as a SMILES string. pIC50: −log10 of the molar value.

We go through six compounds from ChEMBL document CHEMBL3817747 (J Med Chem, 2016).

For this test, the target named is Neuraminidase (Influenza A virus, UniProt B4URF0). The format is cell-based, Influenza A virus (A/WSN/1933(H1N1)), HEK293.
Chain of Neuraminidase (B4URF0 whole entry): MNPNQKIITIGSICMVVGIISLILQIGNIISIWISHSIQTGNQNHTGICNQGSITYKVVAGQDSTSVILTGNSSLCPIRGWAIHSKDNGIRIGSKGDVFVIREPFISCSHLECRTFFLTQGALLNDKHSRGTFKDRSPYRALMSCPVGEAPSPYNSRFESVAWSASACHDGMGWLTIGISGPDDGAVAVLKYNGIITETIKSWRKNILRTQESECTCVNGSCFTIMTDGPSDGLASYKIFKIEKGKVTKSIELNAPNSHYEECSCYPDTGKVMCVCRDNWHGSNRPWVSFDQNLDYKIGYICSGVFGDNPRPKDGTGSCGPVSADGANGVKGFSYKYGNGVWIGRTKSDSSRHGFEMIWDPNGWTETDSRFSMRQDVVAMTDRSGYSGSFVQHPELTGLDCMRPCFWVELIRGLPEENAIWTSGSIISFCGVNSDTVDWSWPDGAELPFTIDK
`CCC(CC)[C@H](NC(C)=O)[C@@H]1C[C@@H](P(=O)(O)O)C[C@H]1NC(=N)N` showed a pIC50 of 8.54. `CCOP(=O)(O)[C@@H]1C[C@@H]([C@@H](NC(C)=O)C(CC)CC)[C@H](NC(=N)N)C1`: the negative-log IC50 (pIC50) was 9.00. The figure for `CCCCCCOP(=O)(O)[C@@H]1C[C@@H]([C@@H](NC(C)=O)C(CC)CC)[C@H](NC(=N)N)C1` is 8.80; for `CCCCCCOP(=O)(O)C1=C[C@@H]([C@@H](NC(C)=O)C(CC)CC)[C@H](NC(=N)N)C1` it is 8.82; for `CCOP(=O)(O)[C@H]1C[C@@H](NC(=N)N)[C@H]([C@@H](NC(C)=O)C(CC)CC)[C@@H]1O` it is 9.05. The same measure for `CCCCCCOP(=O)(O)[C@H]1C[C@@H](NC(=N)N)[C@H]([C@@H](NC(C)=O)C(CC)CC)[C@@H]1O`: 9.30.
